Molecules are shown by their SMILES. Structures can show the parent of a compound that is named as a salt. Where only a bound is given, the exact number is not on record here.

Usually melting point stands for the temperature of the solid-liquid transition. Turning to `CC(C)(CC(=O)O)c1ccc(C(=O)Nc2cn3cc(Cl)ccc3n2)cc1` [Example 117, 3-(4-{[(6-chloroimidazo[1,2-a]pyridin-2-yl)amino]carbonyl}phenyl)-3-methylbutanoic acid], the melting point is 304 to 306 °C (dec.). Under `CNC(=O)CC(C)(C)c1ccc(C(=O)Nc2cn3cc(Cl)ccc3n2)cc1` [Example 128, N-(6-chloroimidazo[1,2-a]pyridin-2-yl)-4-[1,1-dimethyl-3-(methylamino)-3-oxopropyl]benzamide] stands 228 to 230 °C; under `CCN(c1ccc(C(=O)Nc2cn3cc(Cl)ccc3n2)cc1)S(C)(=O)=O` [Example 131, N-(6-chloroimidazo[1,2-a]pyridin-2-yl)-4-[ethyl(methylsulfonyl)amino]benzamide], 245 to 247 °C; under `Cc1ccc2nc(NC(=O)c3ccc(C(C)(C)C(=O)O)cc3)cn2c1` [Example 20], 275 to 277 °C. As for `Cc1ccc2nc(NC(=O)c3ccc(C(C)(C)CCC#N)cc3)cn2c1` [Example 438, 4-(3-cyano-1,1-dimethylpropyl)-N-(6-methylimidazo[1,2-a]pyridin-2-yl)benzamide], the melting point was in the range of 194 to 195 °C. Under `CC(C)(C(=O)NCC(O)CO)c1ccc(C(=O)Nc2cn3cc(Cl)ccc3n2)cc1` (stereo not drawn) [Example 454, N-(6-chloroimidazo[1,2-a]pyridin-2-yl)-4-{2-[(2,3-dihydroxypropyl)amino]-1,1-dimethyl-2-oxoethyl}benzamide] stands 198 to 199 °C; under `CC(C)(CCO)c1ccc(C(=O)Nc2cn3cc(Cl)ccc3n2)cc1` [Example 467, N-(6-chloroimidazo[1,2-a]pyridin-2-yl)-4-(3-hydroxy-1,1-dimethylpropyl)benzamide], 182 to 184 °C.

With `CC(C)(C)c1ccc(C(=O)Nc2cn3nc(NC4CCCC4)ccc3n2)cc1` [Example 165, 4-tert-butyl-N-[6-(cyclopentylamino)imidazo[1,2-b]pyridazin-2-yl]benzamide], the melting point fell in the range of 272 to 273 °C. `CC(C)(CO)c1ccc(C(=O)Nc2cn3cc(-n4ccnc4)ccc3n2)cc1` [Example 103, 4-(2-hydroxy-1,1-dimethylethyl)-N-[6-(1H-imidazol-1-yl)imidazo[1,2-a]pyridin-2-yl]benzamide] showed a melting point of 278 to 280 °C. In the case of `CC(C)(C)c1ccc(C(=O)Nc2cn3ccccc3n2)cc1` [Example 54, 4-tert-butyl-N-(imidazo[1,2-a]pyridin-2-yl)benzamide] it was 230 to 231 °C; in that of `Cc1ncc(-c2ccc3nc(NC(=O)c4ccc(C(C)(C)C)cc4)cn3n2)[nH]1` (as salt: hydrochloride) [Example 156, 4-tert-butyl-N-[6-(2-methyl-1H-imidazol-5-yl)imidazo[1,2-b]pyridazin-2-yl]benzamide hydrochloride], 295 to 297 °C (dec.). Under `CCNC(=O)C(C)(C)c1ccc(C(=O)Nc2cn3cc(Cl)ccc3n2)cc1` [Example 127, N-(6-chloroimidazo[1,2-a]pyridin-2-yl)-4-[2-(ethylamino)-1,1-dimethyl-2-oxoethyl]benzamide] stands 228 to 230 °C; under `CC(C)(CO)c1ccc(C(=O)Nc2cn3cc(Cl)ccc3n2)cc1` [Example 90, N-[6-chloroimidazo[1,2-a]pyridin-2-yl]-4-(2-hydroxy-1,1-dimethylethyl)benzamide], 240 to 242 °C; under `Cc1cccc2nc(NC(=O)c3ccc(C(C)(C)C)cc3)cn12.Cl`, 204 to 205 °C. As to `CC(C)(C)c1ccc(C(=O)Nc2cn3cc(-c4cnco4)ccc3n2)cn1` [Example 100, 6-tert-butyl-N-[6-(1,3-oxazol-5-yl)imidazo[1,2-a]pyridin-2-yl]nicotinamide], the melting point fell in the range of 251 to 253 °C. `CC(=O)NCC(C)(C)c1ccc(C(=O)Nc2cn3cc(-n4ccnc4)ccc3n2)cc1` [Example 135, 4-[2-(acetylamino)-1,1-dimethylethyl]-N-[6-(1H-imidazol-1-yl)imidazo[1,2-a]pyridin-2-yl]benzamide] came in with a melting point of 242 to 244 °C. The molecule `CC(C)(C)c1ccc(C(=O)Nc2cn3nc(N4CCCC4)ccc3n2)cc1.Cl` (hydrate or solvate) yielded a melting point of 257 to 259 °C. Under `CC(C)(C)c1ccc(C(=O)Nc2cn3c4c(ccc3n2)OCC4)cn1` [Example 17, 6-tert-butyl-N-(1,2-dihydrofuro[2,3-e]imidazo[1,2-a]pyridin-7-yl)nicotinamide] stands 246 to 248 °C; under `CS(=O)(=O)Nc1ccc(C(=O)Nc2cn3cc(Cl)ccc3n2)cc1` [Example 110, N-(6-chloroimidazo[1,2-a]pyridin-2-yl)-4-[(methylsulfonyl)amino]benzamide], 293 to 295 °C. In the case of `O=C(Nc1cn2cc(Cl)ccc2n1)c1ccc(C2(C(=O)O)CC2)cc1` [Example 189, 1-{4-[(6-chloroimidazo[1,2-a]pyridin-2-yl)carbamoyl]phenyl}cyclopropanecarboxylic acid] it was 330 to 331 °C. In the case of `Cc1c(NC(=O)c2ccc(C(C)(C)C)cc2)nc2ccc(Cl)nn12` [Example 55, 4-tert-butyl-N-(6-chloro-3-methylimidazo[1,2-b]pyridazin-2-yl)benzamide] it was 269 to 270 °C; in that of `COC(=O)C(C)(C)c1ccc(C(=O)Nc2cn3cc(-c4ccsc4)ccc3n2)cc1` [Example 24, methyl 2-methyl-2-(4-{[6-(3-thienyl)imidazo[1,2-a]pyridin-2-yl]carbamoyl}phenyl)propanoate], 200 to 201 °C; in that of `COC(=O)C(C)(C)c1ccc(C(=O)Nc2cn3c4c(ccc3n2)OCC4)cc1` [Example 15, methyl 2-[4-(1,2-dihydrofuro[2,3-e]imidazo[1,2-a]pyridin-7-ylcarbamoyl)phenyl]-2-methylpropanoate], 235 to 237 °C. With `COC(=O)C(C)(C)c1ccc(C(=O)Nc2cn3cc(Cl)ccc3n2)cc1` [Example 30, methyl 2-{4-[(6-chloroimidazo[1,2-a]pyridin-2-yl)carbamoyl]phenyl}-2-methylpropanoate], the melting point was in the range of 245 to 246 °C.

In the case of `O=C([O-])c1ccc(C(=O)Nc2cn3cc(-n4ccnc4)ccc3n2)cc1.[K+]`, the melting point was more than 400 °C.

In turn, `CC(C)(C)c1ccc(C(=O)Nc2cn3c(ccc4ccccc43)n2)cc1` [Example 50, 4-tert-butyl-N-(imidazo[1,2-a]quinolin-3-yl)benzamide] gave a melting point of 204 to 205 °C. Regarding `CC(C)(C)c1ccc(C(=O)Nc2cn3cc(-n4cccc4)ccc3n2)cc1` [Example 64, 4-tert-butyl-N-[6-(1H-pyrrol-1-yl)-imidazo[1,2-a]pyridin-2-yl]benzamide], the melting point is 274 to 275 °C. Under `CC(C)(C(=O)NO)c1ccc(C(=O)Nc2cn3cc(Cl)ccc3n2)cc1` [Example 33, N-(6-chloroimidazo[1,2-a]pyridin-2-yl)-4-[2-(hydroxyamino)-1,1-dimethyl-2-oxoethyl]benzamide] stands 212 to 213 °C. As to `CC(C)(C)c1ccc(C(=O)Nc2cn3c(CO)cccc3n2)cc1` [Example 194, 4-tert-butyl-N-[5-(hydroxymethyl)imidazo[1,2-a]pyridin-2-yl]benzamide], the melting point was 229 to 230 °C. Under `CC(C)(C(=O)O)c1ccc(C(=O)Nc2cn3cc(-c4ccoc4)ccc3n2)cc1` [Example 27, 2-methyl-2-(4-{[6-(3-furyl)imidazo[1,2-a]pyridin-2-yl]carbamoyl}phenyl)propanoic acid] stands 307 to 309 °C; under `CC(C)(CNC(=O)Cc1cnc[nH]1)c1ccc(C(=O)Nc2cn3cc(C(F)(F)F)ccc3n2)cc1` [Example 458, 4-{2-[(1H-imidazol-5-ylacetyl)amino]-1,1-dimethylethyl}-N-[6-(trifluoromethyl)imidazo[1,2-a]pyridin-2-yl]benzamide], 261 to 263 °C. In turn, `CC(C)(CO)c1ccc(C(=O)Nc2cn3cc(-c4ccoc4)ccc3n2)cc1` [Example 465, N-[6-(3-furyl)imidazo[1,2-a]pyridin-2-yl]-4-(2-hydroxy-1,1-dimethylethyl)benzamide] showed a melting point of 246 to 248 °C. In the case of `CC(C)(CCc1noc(=O)[nH]1)c1ccc(C(=O)Nc2cn3cc(C(F)(F)F)ccc3n2)cc1` [Example 447, 4-[1,1-dimethyl-3-(5-oxo-4,5-dihydro-1,2,4-oxadiazol-3-yl)propyl]-N-[6-(trifluoromethyl)imidazo[1,2-a]pyridin-2-yl]benzamide] it was 268 to 270 °C. In the case of `CC(C)(C(=O)O)c1ccc(C(=O)Nc2cn3cc(Cl)ccc3n2)cc1` [Example 31, 2-{4-[(6-chloroimidazo[1,2-a]pyridin-2-yl)carbamoyl]phenyl}-2-methylpropanoic acid] it was 311 to 313 °C; in that of `CC(C)(C)c1ccc(C(=O)Nc2cn3nc(NC4CCCCC4)ccc3n2)cc1` [Example 164, 4-tert-butyl-N-[6-(cyclohexylamino)imidazo[1,2-b]pyridazin-2-yl]benzamide], 296 to 297 °C; in that of `CCCNCC(C)(C)c1ccc(C(=O)Nc2cn3cc(-n4ccnc4)ccc3n2)cc1` [Example 136, 4-[1,1-dimethyl-2-(propylamino)ethyl]-N-[6-(1H-imidazol-1-yl)imidazo[1,2-a]pyridin-2-yl]benzamide], 162 to 164 °C. As for `CC(C)(C)c1ccc(C(=O)Nc2cn3nc(-n4ccnc4)ccc3n2)cc1` (as salt: hydrochloride) [Example 141, 4-tert-butyl-N-[6-(1H-imidazol-1-yl)imidazo[1,2-b]pyridazin-2-yl]benzamide dihydrochloride], the melting point is 298 to 300 °C. On to `CCC(=O)NC(C)(C)c1ccc(C(=O)Nc2cn3cc(Cl)ccc3n2)cc1` [Example 129, N-(6-chloroimidazo[1,2-a]pyridin-2-yl)-4-[1-methyl-1-(propionylamino)ethyl]benzamide], for which the melting point was 249 to 252 °C. In the case of `CC(C)(N)c1ccc(C(=O)Nc2cn3cc(Cl)ccc3n2)cc1` [Example 92, 4-(1-amino-1-methylethyl)-N-(6-chloroimidazo[1,2-a]pyridin-2-yl)benzamide] it was 235 to 237 °C.

The record behind these values is patent publication US20100029619A1, “FUSED HETEROCYCLIC COMPOUND” (TAKEDA PHARMACEUTICAL COMPANY LIMTED, priority 2006, published 2010).
